Data from patent publication US20060217456A1, “Non-toxic coating composition, methods of use thereof and articles protected from attachment of biofouling organisms” (priority 2003, published 2006).
Converted amounts (≈) assume the structure as drawn. Read-outs that look alike come from different tables or passages of the source.

Key:
[1] = system: cyprid stage larvae of the barnacle, Balanus amphitrite Darwin; conditions: single compound; 28° C., 9 hours; see WO 01/95718; cited from earlier work
[2] = system: cyprid stage larvae of the barnacle, Balanus amphitrite Darwin; assay: Barnacle settlement assay (cyprid larvae in seawater dishes); assay type: in vivo; conditions: single compound, 28° C., 9 hours; for EC50: Amphibalanus amphitrite, read-out: EC50 (concentration inhibiting settlement of 50% of cyprid larvae)
Text: Adults of the barnacle, Balanus amphitrite Darwin, were collected from the Sacred Heart Marine Research Center at St. Mary's College in Tuticorin, India. The barnacles were crushed and the nauplius stage larvae were collected for culture to the cyprid stage following the method of Rittschof et al., J. Exp. Mar. Biol. Ecol., 82:131-146 (1984). The cyprid is the stage at which the barnacle larva is competent to attach to surfaces. Upon attachment to a surface, the larva then undergoes metamorphosis into a barnacle.
Barnacle settlement assays were undertaken using the method described previously by Rittschof et al., J. Chem. Ecol., 11: 551-563 (1985). Briefly, Falcon 50×9 mm plastic petri dishes were filled with 5 ml of filtered seawater at salinity of 33-35 parts per thousand (ppt) and into which 3-day old cyprid stage larvae were added. Menthol and/or isopulegol and/or compounds listed under ii) a) to f), above, were introduced at various concentrations into the dishes containing seawater. Controls were represented by those dishes in which no test compound were added. After incubation at 28° C. for 9 hours, the dishes were examined under a dissecting microscope to determine if there was any mortality. The larvae were then killed with 10% formalin and the number of attached and unattached larvae were counted. Settlement data were expressed as the percentage of the larvae attached to the bottom of the dish.
The settlement assay was used to determine the effective concentration of a number of different compounds listed under ii) a) to f), above. The effective concentration (EC50) is that concentration which inhibited the settlement of fifty percent (50%) of the cyprid stage of the barnacle larvae present in a test sample. The racemic […] compounds are denoted with the prefix rac-.

[3] = system: barnacle, Balanus amphitrite communis; assay: Marine paint panel immersion test, barnacles attached to painted iron panels; conditions: cuprous oxide marine paint on iron panels, submerged 78 weeks, Bitac Cove; control = 100
Method: A floating platform was constructed using layers of bamboo and styrofoam floats. The platform was designed with holders to accommodate test panels measuring 4 inches×12 inches×0.25 inches (1 inch=2.54 cm). A first experimental paint was prepared, containing a biocidally effective amount of cuprous oxide and no other biocide which was used as the control. This composition consisted of 40 parts by weight of cuprous oxide, 10 parts by weight of iron oxide red, 5 parts by weight of xylene, 10 parts by weight of butyl alcohol, 5 parts by weight polyamide resin, 6 parts by weight of plasticizer. To this composition was added a combination of 0.5% by weight of rac-isopulegol, 0.25% by weight of (−)-menthol and 0.25% by weight of 1-menthol propyleneglycol carbonate (Composition A). A second paint composition was prepared from the same marine paint vehicle containing cuprous oxide, to which was added 2% by weight of (−)-menthol (Composition B). A third formulation was made from the same cuprous oxide-containing marine paint vehicle, to which was added 2% by weight of rac-isopulegol (Composition C). A fourth formulation was made from the same cuprous oxide-containing marine paint vehicle, to which was added 2% by weight of 1-menthol propyleneglycol carbonate (Composition D). Solid iron panels having the above-mentioned dimensions were painted with the paint formulations thus prepared, placed in the holders in the floating platform and submerged continuously near the center of Bitac Cove in San Dionisio Bay (Philippines) for a period of 78 weeks. The panels were examined for a few minutes every three months and immediately resubmerged after photography. After 78 weeks, the panels were removed and inspected. The numbers of barnacles attached to the panels were counted. The major fouling organisms included the barnacle, Balanus amphitrite communis, and the rock oyster, Crossostrea cuculata.

Row | Molecule | EC50 (concentration inhibiting settlement of 50% of cyprid larvae) [1] | EC50 (concentration inhibiting settlement of 50% of cyprid larvae) [2] | further results
1 | (−)-isopulegol | 8.8 * 10^−5 (see WO 01/95718) mg/ml | – | –
2 | C=C(C)[C@H]1CC=C(C)CC1 [d-limonene, reference compound] | – | 0.029 µg/mL | –
3 | CC(O)C(=O)O[C@@H]1C[C@H](C)CC[C@H]1C(C)C (mixture of isomers) [I-menthyl lactate, 1-menthyllactate] | – | – | EC50 [2]: 0.002 µg/mL
4 | CC1CCC(C(C)C)C2(C1)OCC(CO)O2 (racemic) [rac-menthone glycerin acetal] | – | 0.049 µg/mL | –
5 | CC1CCC(C(C)C)C(O)C1 (stereo not drawn) [1R, 2S, 5R-(−)-menthol (=l-menthol), 1R, 2S, 5R-(−)-menthol] | 4 * 10^−3 (see WO 01/95718) mg/ml | – | % Settlement [3]: 12.2%
6 | CC(C)[C@@H]1CC[C@@H](C)C[C@@]12OCC(CO)O2 (stereo partly drawn) [menthone glycerin acetal] | – | – | EC50 [2]: 0.00052 µg/mL (≈ 0.00228 µM)
7 | (−)-menthone [reference compound] | 0.001 (see WO 01/95718) mg/ml | – | –
8 | C=C(C)[C@@H]1CC[C@@H](C)C[C@H]1O (racemic) [rac-isopulegol] | – | 0.029 µg/mL | % Settlement [3]: 16.1%
9 | l-menthyl propyleneglycol carbonate | – | 0.0022 µg/mL | % Settlement [3]: 23.4%
10 | CC1CC[C@H](C(C)C)[C@@H](O)C1 (stereo partly drawn) [1S, 2R, 5S-(+)-menthol, reference compound] | 0.1 (see WO 01/95718) mg/ml | – | –
11 | COC1CC(C)CCC1C(C)C (stereo not drawn) [menthylmethylether, reference compound] | – | – | EC50 [2]: 0.11 µg/mL (≈ 0.646 µM)
12 | CC1CCC(C(C)C)C(O)C1 (racemic) [rac-menthol] | 0.1 (see WO 01/95718) mg/ml | – | –
